In patent publication US11098040B2, “Compounds and methods of use” (Ferro Therapeutics, Inc., priority 2018, dated 2021):

Columns and labels:
[1] = Whole blood stability, human; type: in vitro ADME
Source text: (§1) The results of the assay on stability in blood and IC50 values for pancreatic cancer cell line KP4 are given below in Table 24.

[2] = Whole blood stability, mouse; type: in vitro ADME
Source text: as §1

KP4 = experiment: Cell viability assay (CellTiter Glo), pancreatic ductal adenocarcinoma KP4; type: cell-based, human; conditions: Homo sapiens, KP-4, 96 h, pancreatic cancer cell line KP4, 96 hours, CellTiter Glo; read-out: IC50 μM KP4
Method: (§2) Cell viability assay was performed to assess the potency of the compounds in human cancer cell lines KP4 (pancreatic ductal adenocarcinoma), MiaPaCa-2 (pancreatic carcinoma), AsPC-1 (pancreatic adenocarcinoma, ascites), 143B (osteosarcoma), and SJSA-1 (osteosarcoma). Selected compounds were also assayed in a human breast epithelial cell line MCF-10A, a nontumorigenic cell line as a control to assess differential activity. Cells at a density of 500-5,000 cells/well were seeded in 96-well plates and incubated at 37° C. overnight. A series of 9 different concentrations of compound stocks (500×) were created by 3-fold serial dilution in DMSO. These compounds were further diluted in culture media and then added to cells so that the final DMSO concentration was equal to 0.25% or less. After 96 hours of incubation, 50 μL of CellTiter Glo reagent (Promega) was added to each well and luminescence was measured after 10 minutes using EnVision (PerkinElmer). Compounds titrated from top concentration of up to 30 μM. The select compounds were tested initially from 30 μM as the top concentration in duplicates (range of 4.6 nM-30 μM). […] Luminescence from cells treated with DMSO alone was set as Max and % of inhibition was calculated as follows: Inhibition %=(Max-Sample value)/Max*100. Data was analyzed using XL-fit software (ID Business Solutions Ltd.). IC50, relative IC50, or % of top inhibition was calculated.
as §2, with “in” for “in human”, “line” for “lines”, “adenocarcinoma).” for “adenocarcinoma), MiaPaCa-2 (pancreatic carcinoma), AsPC-1 (pancreatic adenocarcinoma, ascites), 143B (osteosarcoma), and SJSA-1 (osteosarcoma). Selected compounds were also assayed in a human breast epithelial cell line MCF-10A, a nontumorigenic cell line as a control to assess differential activity.”, “1,000-10,000” for “500-5,000”, “All” for “Compounds titrated from top concentration of up to 30 μM. The select”
as §1

COC[C@H]1Cc2c([nH]c3ccccc23)[C@H](c2ccc(C(=O)OC(C)(C)C)cc2)N1C(=O)CCl [Compound 63]
Whole Blood Stability % Remaining at 37° C. Human ([1]; 0 min): 100.0% | Whole Blood Stability % Remaining at 37° C. Human ([1]; 30 min): 113.1% | Whole Blood Stability % Remaining at 37° C. Human ([1]; 60 min): 70.7% | Whole Blood Stability % Remaining at 37° C. Mouse ([2]; 0 min): 100.0% | Whole Blood Stability % Remaining at 37° C. Mouse ([2]; 30 min): 97.0% | Whole Blood Stability % Remaining at 37° C. Mouse ([2]; 60 min): 108.4% | IC50 (KP4): 0.01 to 0.1 µM

C=CCOC(=O)c1ccc([C@H]2c3[nH]c4ccccc4c3C[C@H](C(=O)OC)N2C(=O)CCl)cc1 [Compound 74]
Whole Blood Stability % Remaining at 37° C. Human ([1]; 0 min): 100.0% | Whole Blood Stability % Remaining at 37° C. Human ([1]; 30 min): 58.2% | Whole Blood Stability % Remaining at 37° C. Human ([1]; 60 min): 29.0% | Whole Blood Stability % Remaining at 37° C. Mouse ([2]; 0 min): 100.0% | Whole Blood Stability % Remaining at 37° C. Mouse ([2]; 30 min): 0.0% | Whole Blood Stability % Remaining at 37° C. Mouse ([2]; 60 min): 0.0% | IC50 (KP4): < 0.01 µM

CN(C)C(=O)[C@H]1Cc2c([nH]c3ccccc23)[C@H](c2ccc([Si](C)(C)C)cc2)N1C(=O)CCl [Compound 67]
Whole Blood Stability % Remaining at 37° C. Human ([1]; 0 min): 100.0% | Whole Blood Stability % Remaining at 37° C. Human ([1]; 30 min): 56.8% | Whole Blood Stability % Remaining at 37° C. Human ([1]; 60 min): 37.3% | Whole Blood Stability % Remaining at 37° C. Mouse ([2]; 0 min): 100.0% | Whole Blood Stability % Remaining at 37° C. Mouse ([2]; 30 min): 38.7% | Whole Blood Stability % Remaining at 37° C. Mouse ([2]; 60 min): 13.3% | IC50 (KP4): 0.01 to 0.1 µM

COC(=O)[C@H]1Cc2c([nH]c3ccccc23)[C@H](c2ccc(C(=O)N(C)C)cc2)N1C(=O)CCl [Compound 8]
Whole Blood Stability % Remaining at 37° C. Human ([1]; 0 min): 100.0% | Whole Blood Stability % Remaining at 37° C. Human ([1]; 30 min): 52.0% | Whole Blood Stability % Remaining at 37° C. Human ([1]; 60 min): 26.5% | Whole Blood Stability % Remaining at 37° C. Mouse ([2]; 0 min): 100.0% | Whole Blood Stability % Remaining at 37° C. Mouse ([2]; 30 min): 53.0% | Whole Blood Stability % Remaining at 37° C. Mouse ([2]; 60 min): 30.5% | IC50 (KP4): < 0.01 µM

COC(=O)[C@H]1Cc2c([nH]c3ccccc23)[C@H](c2ccc(C(=O)N3CCC(O)CC3)cc2)N1C(=O)CCl [Compound 32]
Whole Blood Stability % Remaining at 37° C. Human ([1]; 0 min): 100.0% | Whole Blood Stability % Remaining at 37° C. Human ([1]; 30 min): 0.1% | Whole Blood Stability % Remaining at 37° C. Human ([1]; 60 min): 0.1% | Whole Blood Stability % Remaining at 37° C. Mouse ([2]; 0 min): 100.0% | Whole Blood Stability % Remaining at 37° C. Mouse ([2]; 30 min): 0.0% | Whole Blood Stability % Remaining at 37° C. Mouse ([2]; 60 min): 0.0% | IC50 (KP4): > 1 µM

C[C@H]1Cc2c([nH]c3ccccc23)[C@H](c2ccc(NCC3CC3)cc2)N1C(=O)CCl [Compound 116]
Whole Blood Stability % Remaining at 37° C. Human ([1]; 0 min): 100.0% | Whole Blood Stability % Remaining at 37° C. Human ([1]; 30 min): 79.2% | Whole Blood Stability % Remaining at 37° C. Human ([1]; 60 min): 62.0% | Whole Blood Stability % Remaining at 37° C. Mouse ([2]; 0 min): 100.0% | Whole Blood Stability % Remaining at 37° C. Mouse ([2]; 30 min): 82.6% | Whole Blood Stability % Remaining at 37° C. Mouse ([2]; 60 min): 67.1% | IC50 (KP4): 0.1 to 0.5 µM

COC(=O)[C@H]1Cc2c([nH]c3ccccc23)[C@H](c2ccc(OC(=O)C(C)(C)C)cc2)N1C(=O)CCl [Compound 13]
Whole Blood Stability % Remaining at 37° C. Human ([1]; 0 min): 100.0% | Whole Blood Stability % Remaining at 37° C. Human ([1]; 30 min): 34.9% | Whole Blood Stability % Remaining at 37° C. Human ([1]; 60 min): 29.2% | Whole Blood Stability % Remaining at 37° C. Mouse ([2]; 0 min): 100.0% | Whole Blood Stability % Remaining at 37° C. Mouse ([2]; 30 min): 0.0% | Whole Blood Stability % Remaining at 37° C. Mouse ([2]; 60 min): 0.0% | IC50 (KP4): 0.1 to 0.5 µM

CN(C)C(=O)[C@H]1Cc2c([nH]c3ccccc23)[C@H](c2ccc(NC(=O)OC(C)(C)C)cc2)N1C(=O)CCl [Compound 56]
Whole Blood Stability % Remaining at 37° C. Human ([1]; 0 min): 100.0% | Whole Blood Stability % Remaining at 37° C. Human ([1]; 30 min): 59.3% | Whole Blood Stability % Remaining at 37° C. Human ([1]; 60 min): 60.7% | Whole Blood Stability % Remaining at 37° C. Mouse ([2]; 0 min): 100.0% | Whole Blood Stability % Remaining at 37° C. Mouse ([2]; 30 min): 84.1% | Whole Blood Stability % Remaining at 37° C. Mouse ([2]; 60 min): 38.9% | IC50 (KP4): 0.01 to 0.1 µM

COC(=O)[C@H]1Cc2c([nH]c3ccccc23)[C@H](c2ccc(C(=O)OCC3CCCC3)cc2)N1C(=O)CCl [Compound 86]
Whole Blood Stability % Remaining at 37° C. Human ([1]; 0 min): 100.0% | Whole Blood Stability % Remaining at 37° C. Human ([1]; 30 min): 78.3% | Whole Blood Stability % Remaining at 37° C. Human ([1]; 60 min): 49.6% | Whole Blood Stability % Remaining at 37° C. Mouse ([2]; 0 min): 100.0% | Whole Blood Stability % Remaining at 37° C. Mouse ([2]; 30 min): 0.0% | Whole Blood Stability % Remaining at 37° C. Mouse ([2]; 60 min): 0.0% | IC50 (KP4): < 0.01 µM

CC[C@H]1Cc2c([nH]c3ccccc23)[C@H](c2ccc(C(=O)OC)cc2)N1C(=O)CCl [Compound 98]
Whole Blood Stability % Remaining at 37° C. Human ([1]; 0 min): 100.0% | Whole Blood Stability % Remaining at 37° C. Human ([1]; 30 min): 79.2% | Whole Blood Stability % Remaining at 37° C. Human ([1]; 60 min): 54.8% | Whole Blood Stability % Remaining at 37° C. Mouse ([2]; 0 min): 100.0% | Whole Blood Stability % Remaining at 37° C. Mouse ([2]; 30 min): 0.0% | Whole Blood Stability % Remaining at 37° C. Mouse ([2]; 60 min): 0.0% | IC50 (KP4): < 0.01 µM

COC(=O)[C@H]1Cc2c([nH]c3ccccc23)[C@H](c2ccc(S(=O)(=O)N(C)C)cc2)N1C(=O)CCl [Compound 23]
Whole Blood Stability % Remaining at 37° C. Human ([1]; 0 min): 100.0% | Whole Blood Stability % Remaining at 37° C. Human ([1]; 30 min): 48.9% | Whole Blood Stability % Remaining at 37° C. Human ([1]; 60 min): 30.8% | Whole Blood Stability % Remaining at 37° C. Mouse ([2]; 0 min): 100.0% | Whole Blood Stability % Remaining at 37° C. Mouse ([2]; 30 min): 55.5% | Whole Blood Stability % Remaining at 37° C. Mouse ([2]; 60 min): 34.4% | IC50 (KP4): < 0.01 µM

COC(=O)[C@H]1Cc2c([nH]c3ccccc23)[C@H](c2ccc(C(=O)OCC3CCCCC3)cc2)N1C(=O)CCl [Compound 89]
Whole Blood Stability % Remaining at 37° C. Human ([1]; 0 min): 100.0% | Whole Blood Stability % Remaining at 37° C. Human ([1]; 30 min): 84.8% | Whole Blood Stability % Remaining at 37° C. Human ([1]; 60 min): 91.2% | Whole Blood Stability % Remaining at 37° C. Mouse ([2]; 0 min): 100.0% | Whole Blood Stability % Remaining at 37° C. Mouse ([2]; 30 min): 0.0% | Whole Blood Stability % Remaining at 37° C. Mouse ([2]; 60 min): 0.0% | IC50 (KP4): < 0.01 µM

C[C@H]1Cc2c([nH]c3ccccc23)[C@@H](c2ccc(C(=O)NC34CC(C3)C4)cc2)N1C(=O)CCl [Compound 111]
Whole Blood Stability % Remaining at 37° C. Human ([1]; 0 min): 100.0% | Whole Blood Stability % Remaining at 37° C. Human ([1]; 30 min): 96.1% | Whole Blood Stability % Remaining at 37° C. Human ([1]; 60 min): 68.1% | Whole Blood Stability % Remaining at 37° C. Mouse ([2]; 0 min): 100.0% | Whole Blood Stability % Remaining at 37° C. Mouse ([2]; 30 min): 79.2% | Whole Blood Stability % Remaining at 37° C. Mouse ([2]; 60 min): 87.7% | IC50 (KP4): 0.5 to 1 µM

COC(=O)c1ccc([C@H]2c3[nH]c4cc(Br)ccc4c3C[C@H](C(=O)OC)N2C(=O)CCl)cc1 [Compound 96]
Whole Blood Stability % Remaining at 37° C. Human ([1]; 0 min): 100.0% | Whole Blood Stability % Remaining at 37° C. Human ([1]; 30 min): 29.1% | Whole Blood Stability % Remaining at 37° C. Human ([1]; 60 min): 10.9% | Whole Blood Stability % Remaining at 37° C. Mouse ([2]; 0 min): 100.0% | Whole Blood Stability % Remaining at 37° C. Mouse ([2]; 30 min): 0.0% | Whole Blood Stability % Remaining at 37° C. Mouse ([2]; 60 min): 0.0% | IC50 (KP4): < 0.01 µM

COC(=O)c1ccc([C@@H]2c3[nH]c4ccc(Cl)cc4c3C[C@H](C(=O)OC)N2C(=O)CCl)cc1 [Compound 94]
Whole Blood Stability % Remaining at 37° C. Human ([1]; 0 min): 100.0% | Whole Blood Stability % Remaining at 37° C. Human ([1]; 30 min): 50.3% | Whole Blood Stability % Remaining at 37° C. Human ([1]; 60 min): 27.1% | Whole Blood Stability % Remaining at 37° C. Mouse ([2]; 0 min): 100.0% | Whole Blood Stability % Remaining at 37° C. Mouse ([2]; 30 min): 0.0% | Whole Blood Stability % Remaining at 37° C. Mouse ([2]; 60 min): 0.0% | IC50 (KP4): < 0.01 µM
